Measurements as given in ChEMBL document CHEMBL4665736, “Synthesis and structural insights into the binding mode of the albomycin δ1 core and its analogues in complex with their target aminoacyl-tRNA synthetase” (Bioorg Med Chem, 2020).
Active and inactive are the calls of the source. No cut-off for these calls is given here.

Experiments:
[1] = tested on: Escherichia coli BL21(DE3); test: Inhibition of recombinant Escherichia coli BL21(DE3) isoleucyl-tRNA synthetase expressed in Escherichia coli Rosetta 2 (DE3) assessed as reduction in tRNA aminoacylation at 10 uM preincubated for 10 mins in presence of [14C]-isoleucin and tRNA and iPPase followed by ATP addition and measured after 6 mins by scintillation counting method; conditions: time 16.0 min
[2] = molecular target: Serine--tRNA ligase (Escherichia coli (strain K12)) (UniProt P0A8L1); test: (§1) Inhibition of recombinant Escherichia coli BL21(DE3) seryl-tRNA synthetase expressed in Escherichia coli Rosetta 2 (DE3) assessed as reduction in tRNA aminoacylation at 0.1 uM preincubated for 10 mins in presence of [14C]-serine and tRNA and iPPase followed by ATP addition by scintillation counting method relative to control
Chain of Serine--tRNA ligase (Escherichia coli (strain K12)) (P0A8L1 whole entry, looked up): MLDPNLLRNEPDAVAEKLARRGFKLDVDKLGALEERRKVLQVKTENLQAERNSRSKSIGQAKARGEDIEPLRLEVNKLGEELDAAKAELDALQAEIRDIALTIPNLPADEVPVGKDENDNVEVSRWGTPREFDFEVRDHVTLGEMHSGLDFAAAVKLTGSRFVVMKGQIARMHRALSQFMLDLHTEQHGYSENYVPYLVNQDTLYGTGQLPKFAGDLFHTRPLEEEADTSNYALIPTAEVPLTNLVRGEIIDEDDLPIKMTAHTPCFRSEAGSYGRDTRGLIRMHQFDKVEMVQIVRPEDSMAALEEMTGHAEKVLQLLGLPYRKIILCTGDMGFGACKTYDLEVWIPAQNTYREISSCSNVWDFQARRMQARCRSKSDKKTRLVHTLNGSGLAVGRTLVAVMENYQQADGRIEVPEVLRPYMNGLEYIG

[3] = molecular target: Serine--tRNA ligase (Escherichia coli (strain K12)) (UniProt P0A8L1); test: as §1, with “1” for “0.1”
[4] = molecular target: Serine--tRNA ligase (Escherichia coli (strain K12)) (UniProt P0A8L1); test: as §1, with “10” for “0.1”
[5] = tested on: Escherichia coli BL21(DE3); test: as §1, with “aspartyl-tRNA” for “seryl-tRNA”, “[14C]-aspartate” for “[14C]-serine”
[6] = (§2) Inhibition of recombinant Escherichia coli BL21(DE3) aspartyl-tRNA synthetase expressed in Escherichia coli Rosetta 2 (DE3) assessed as reduction in tRNA aminoacylation preincubated for 10 mins in presence of [14C]-aspartate and tRNA and iPPase followed by ATP addition by scintillation counting method
[7] = tested on: Escherichia coli BL21(DE3); test: as §2, with “aminoacylation at 10 nM” for “aminoacylation”
[8] = tested on: Escherichia coli BL21(DE3); test: as §2, with “aminoacylation at 1 uM” for “aminoacylation”

With CC[C@H](C)[C@H](N)C(=O)NC(C(=O)O)C(O)[C@H]1S[C@@H](n2ccc(=O)n(C)c2=O)[C@H](O)[C@H]1O (mixture of isomers) the inhibition [1] was “inactive”.

For Cn1c(=O)ccn([C@@H]2S[C@H]([C@@H](O)[C@@H](NC(=O)[C@@H](N)CO)C(=O)O)[C@H](O)[C@H]2O)c1=O, the inhibition [2] was 50% and the inhibition [3] was 80%.

In the case of Cn1c(=O)ccn([C@@H]2S[C@H]([C@H](O)[C@H](NC(=O)[C@@H](N)CO)C(=O)O)[C@H](O)[C@H]2O)c1=O, the inhibition [4] is reported as 25%.

With Cn1c(=O)ccn([C@@H]2S[C@H]([C@@H](O)[C@@H](NC(=O)[C@@H](N)CC(=O)O)C(=O)O)[C@H](O)[C@H]2O)c1=O the inhibition [5] was 60%, the IC50 [6] was 31 nM and the inhibition [7] was “Active”.

With Cn1c(=O)ccn([C@@H]2S[C@H]([C@H](O)[C@H](NC(=O)[C@@H](N)CC(=O)O)C(=O)O)[C@H](O)[C@H]2O)c1=O the inhibition [8] was “inactive”.
